Inhibition in vivo and IC50 data for 1 compound are collected here from ChEMBL document CHEMBL1145787, “Synthesis and structure-activity relationship of N-substituted 4-arylsulfonylpiperidine-4-hydroxamic acids as novel, orally active matrix metalloproteinase inhibitors for the treatment of osteoarthritis” (J Med Chem, 2003).

pIC50: −log10 of the molar value.

A word on the inhibition in vivo: it is the change of the read-out against control, counted positive when it falls. Higher therefore signals a strong effect. For orientation: pIC50 means the negative decadic logarithm of the IC50, by convention in mol/L.

A short description of test [1]: In vivo inhibitory activity against Matrix metalloprotease enzyme by dialysis implant assay, value is relative to activity of CGS-27023 (53+/-3) at 25 mg/kg. po. Format: functional.
The target in test [2] is Matrix metalloproteinase-9 (Homo sapiens, UniProt P14780). Nature of the test: In vitro inhibitory activity against matrix metalloprotease-9.
Sequence of Matrix metalloproteinase-9 (P14780 whole entry): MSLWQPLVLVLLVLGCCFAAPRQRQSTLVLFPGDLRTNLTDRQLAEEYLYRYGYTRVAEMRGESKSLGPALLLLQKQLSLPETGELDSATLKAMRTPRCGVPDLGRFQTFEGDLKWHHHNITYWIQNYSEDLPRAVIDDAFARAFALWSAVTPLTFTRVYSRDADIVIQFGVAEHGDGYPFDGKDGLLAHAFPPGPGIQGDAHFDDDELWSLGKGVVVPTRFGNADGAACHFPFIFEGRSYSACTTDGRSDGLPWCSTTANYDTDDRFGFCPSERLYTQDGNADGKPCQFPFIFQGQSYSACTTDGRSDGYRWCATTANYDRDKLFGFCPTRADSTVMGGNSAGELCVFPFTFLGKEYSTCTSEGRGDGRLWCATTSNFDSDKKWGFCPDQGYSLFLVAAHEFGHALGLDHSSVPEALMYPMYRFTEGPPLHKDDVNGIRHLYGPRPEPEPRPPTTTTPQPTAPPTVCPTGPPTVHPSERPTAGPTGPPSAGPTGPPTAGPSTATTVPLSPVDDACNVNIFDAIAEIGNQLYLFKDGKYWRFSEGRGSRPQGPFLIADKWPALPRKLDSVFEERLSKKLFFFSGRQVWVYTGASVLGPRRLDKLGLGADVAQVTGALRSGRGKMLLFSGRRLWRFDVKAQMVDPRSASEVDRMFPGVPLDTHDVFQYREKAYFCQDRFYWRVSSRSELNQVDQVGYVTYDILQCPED

Compound `COc1ccc(S(=O)(=O)C2(C(=O)NO)CCN(CCCc3ccccc3)CC2)cc1` registered an inhibition in vivo at 25 mg/kg in test [1] of 9%. The pIC50 in test [2] is 7.89.
